According to patent publication US7723068B2, “Gene cluster involved in safracin biosynthesis and its uses for genetic engineering” (PharmaMar, S.A., priority 2002, dated 2010):

What was measured:
LOVO-DOX [1] = test: cells; conditions: for GI50: read-out: GI50 LOVO-DOX; for CC50: read-out: LC50 LOVO-DOX
HELA [2] = conditions: Cervix
IGROV [3] = conditions: Ovary
SK-MEL-28 [4] = conditions: Melanoma
[5] = Antibacterial and antitumoral activities, general statements; conditions: compared with safracin A / safracin B
LN-caP [6] = test: cells; conditions: Homo sapiens, LNCaP; for GI50: read-out: GI50 LN-caP; for CC50: read-out: LC50 LN-caP
K-562 [7] = conditions: Leukemia
HT29 [8] = conditions: Colon
A549 [9] = conditions: NSCL
HT29 [10] = test: cells; conditions: Homo sapiens; for GI50: HT-29, read-out: GI50 HT29; for CC50: HT-29, read-out: LC50 HT29
IGROV-ET [11] = test: cells; conditions: for GI50: read-out: GI50 IGROV-ET; for CC50: read-out: LC50 IGROV-ET
Bacillus subtilis = test: Antimicrobial activity on solid medium, disk; assay type: cell-based; conditions: 10 μg/disk (6 mm diameter)
Method: Antimicrobial activity: On solid medium Bacillus subtilis. 10 μg/disk (6 mm diameter): 10 mm inhibition zone Spectroscopic Data: […]

K-562 [12] = test: cells; conditions: Homo sapiens; for GI50: K562, read-out: GI50 K-562; for CC50: K562, read-out: LC50 K-562
SK-BR3 [13] = conditions: Breast
LN-caP [14] = conditions: Prostate
DU-145 [15] = conditions: Prostate
SK-MEL-28 [16] = test: cells; conditions: Homo sapiens; for GI50: SK-MEL-28, read-out: GI50 SK-MEL-28; for CC50: SK-MEL-28, read-out: LC50 SK-MEL-28
LOVO [17] = conditions: Colon
HELA-APL [18] = test: cells; conditions: for GI50: read-out: GI50 HELA-APL; for CC50: read-out: LC50 HELA-APL
SK-BR3 [19] = test: cells; conditions: Homo sapiens; for GI50: SK-BR-3, read-out: GI50 SK-BR3; for CC50: SK-BR-3, read-out: LC50 SK-BR3
A549 [20] = test: cells; conditions: Homo sapiens; for GI50: A549, read-out: GI50 A549; for CC50: A549, read-out: LC50 A549
HELA [21] = test: cells; conditions: Homo sapiens; for GI50: read-out: GI50 HELA; for CC50: read-out: LC50 HELA
PANC1 [22] = test: cells; conditions: Homo sapiens; for GI50: PANC-1, read-out: GI50 PANC1; for CC50: PANC-1, read-out: LC50 PANC1
LOVO [23] = test: cells; conditions: Homo sapiens; for GI50: read-out: GI50 LOVO; for CC50: read-out: LC50 LOVO
PANC1 [24] = conditions: Pancreas
IGROV-ET [25] = conditions: Ovary
HELA-APL [26] = conditions: Cervix
DU-145 [27] = test: cells; conditions: Homo sapiens; for GI50: DU-145, read-out: GI50 DU-145; for CC50: DU-145, read-out: LC50 DU-145
IGROV [28] = test: cells; conditions: for GI50: read-out: GI50 IGROV; for CC50: read-out: LC50 IGROV
LOVO-DOX [29] = conditions: Colon

For `COc1c(C)cc2c(c1O)C1NC(C2)C(O)N2C(CNC(=O)C(C)N)c3c(cc(C)c(OC)c3O)CC12` (stereo not drawn) [Safracin P-19B], the GI50 (LOVO-DOX [1]) was 14.4 µM, the CC50 (LOVO-DOX [1]) was greater than 19.5 µM and the “TGI HELA” value (HELA [2]) was 16.1 µM. The “TGI IGROV” value (IGROV [3]) was 14.8 µM, the “TGI SK-MEL-28” value (SK-MEL-28 [4]) was greater than 19.5 µM and the “antibacterial and antitumoral activities (in words)” value [5] was “appear to loose their activity”. The GI50 (LN-caP [6]) was 3.9 µM, the CC50 (LN-caP [6]) was 16.7 µM and the “TGI K-562” value (K-562 [7]) was 5.77 µM. For the same compound, the “TGI HT29” value (HT29 [8]) was greater than 19.5 µM, the “TGI A549” value (A549 [9]) was greater than 19.5 µM and the GI50 (HT29 [10]) was 15.5 µM. It also gave a CC50 (HT29 [10]) greater than 19.5 µM, a GI50 (IGROV-ET [11]) of 8.74 µM and a CC50 (IGROV-ET [11]) greater than 19.5 µM. For the same compound, the “Antimicrobial activity: inhibition zone” value (Bacillus subtilis) was “NO ACTIVE”, the GI50 (K-562 [12]) was 2.38 µM and the CC50 (K-562 [12]) was 14 µM. For the same compound, the “TGI SK-BR3” value (SK-BR3 [13]) was 19.2 µM, the “TGI LN-caP” value (LN-caP [14]) was 8.06 µM and the “TGI DU-145” value (DU-145 [15]) was greater than 19.5 µM. For the same compound, the GI50 (SK-MEL-28 [16]) was 7.9 µM, the CC50 (SK-MEL-28 [16]) was greater than 19.5 µM and the “TGI LOVO” value (LOVO [17]) was greater than 19.5 µM. The GI50 (HELA-APL [18]) was 4.8 µM, the CC50 (HELA-APL [18]) was 19.5 µM and the GI50 (SK-BR3 [19]) was 7.08 µM. It also gave a CC50 (SK-BR3 [19]) greater than 19.5 µM, a GI50 (A549 [20]) greater than 19.5 µM and a CC50 (A549 [20]) greater than 19.5 µM. The GI50 (HELA [21]) was 6.73 µM, the CC50 (HELA [21]) was greater than 19.5 µM and the GI50 (PANC1 [22]) was 18.1 µM. The CC50 (PANC1 [22]) was greater than 19.5 µM, the GI50 (LOVO [23]) was greater than 19.5 µM and the CC50 (LOVO [23]) was greater than 19.5 µM. For the same compound, the “TGI PANC1” value (PANC1 [24]) was greater than 19.5 µM, the “TGI IGROV-ET” value (IGROV-ET [25]) was greater than 19.5 µM and the “TGI HELA-APL” value (HELA-APL [26]) was 10 µM. The GI50 (DU-145 [27]) was 17 µM, the CC50 (DU-145 [27]) was greater than 19.5 µM and the GI50 (IGROV [28]) was 5.42 µM. For the same compound, the CC50 (IGROV [28]) was greater than 19.5 µM and the “TGI LOVO-DOX” value (LOVO-DOX [29]) was greater than 19.5 µM.
With `COc1c(C)cc2c(c1O)C1C3Cc4cc(C)c(OC)c(O)c4C(CNC(=O)C(C)N)N3CC(C2)N1C` (stereo not drawn) [Safracin P-22A] the GI50 (LOVO-DOX [1]) was greater than 19.6 µM, the CC50 (LOVO-DOX [1]) was greater than 19.6 µM and the “TGI HELA” value (HELA [2]) was greater than 19.6 µM. For the same compound, the “TGI IGROV” value (IGROV [3]) was 19.6 µM, the “TGI SK-MEL-28” value (SK-MEL-28 [4]) was 13.3 µM and the “antibacterial and antitumoral activities (in words)” value [5] was “appear to loose their activity”. The GI50 (LN-caP [6]) was 4.19 µM, the CC50 (LN-caP [6]) was greater than 19.6 µM and the “TGI K-562” value (K-562 [7]) was 7.93 µM. For the same compound, the “TGI HT29” value (HT29 [8]) was greater than 19.6 µM, the “TGI A549” value (A549 [9]) was greater than 19.6 µM and the GI50 (HT29 [10]) was 12.6 µM. It also gave a CC50 (HT29 [10]) greater than 19.6 µM, a GI50 (IGROV-ET [11]) of 13 µM and a CC50 (IGROV-ET [11]) greater than 19.6 µM. For the same compound, the “Antimicrobial activity: inhibition zone” value (Bacillus subtilis) was “NO ACTIVE”, the GI50 (K-562 [12]) was 3.15 µM and the CC50 (K-562 [12]) was 19.6 µM. The “TGI SK-BR3” value (SK-BR3 [13]) was greater than 19.6 µM, the “TGI LN-caP” value (LN-caP [14]) was 9.26 µM and the “TGI DU-145” value (DU-145 [15]) was greater than 19.6 µM. The GI50 (SK-MEL-28 [16]) was 5.93 µM, the CC50 (SK-MEL-28 [16]) was greater than 19.6 µM and the “TGI LOVO” value (LOVO [17]) was greater than 19.6 µM. For the same compound, the GI50 (HELA-APL [18]) was 7.66 µM, the CC50 (HELA-APL [18]) was greater than 19.6 µM and the GI50 (SK-BR3 [19]) was 12.7 µM. It also gave a CC50 (SK-BR3 [19]) greater than 19.6 µM, a GI50 (A549 [20]) greater than 19.6 µM and a CC50 (A549 [20]) greater than 19.6 µM. It also gave a GI50 (HELA [21]) of 8.75 µM, a CC50 (HELA [21]) greater than 19.6 µM and a GI50 (PANC1 [22]) greater than 19.6 µM. For the same compound, the CC50 (PANC1 [22]) was greater than 19.6 µM, the GI50 (LOVO [23]) was greater than 19.6 µM and the CC50 (LOVO [23]) was greater than 19.6 µM. For the same compound, the “TGI PANC1” value (PANC1 [24]) was greater than 19.6 µM, the “TGI IGROV-ET” value (IGROV-ET [25]) was greater than 19.6 µM and the “TGI HELA-APL” value (HELA-APL [26]) was 19.6 µM. For the same compound, the GI50 (DU-145 [27]) was greater than 19.6 µM, the CC50 (DU-145 [27]) was greater than 19.6 µM and the GI50 (IGROV [28]) was 7.74 µM. For the same compound, the CC50 (IGROV [28]) was greater than 19.6 µM and the “TGI LOVO-DOX” value (LOVO-DOX [29]) was greater than 19.6 µM.
In the case of `COc1c(C)cc2c(c1O)C1C3Cc4cc(C)c(OC)c(O)c4C(CNC(=O)C(C)N)N3C(O)C(C2)N1C` (stereo not drawn) [Safracin P-22B], the GI50 (LOVO-DOX [1]) is reported as 6.95 µM, the CC50 (LOVO-DOX [1]) is reported as greater than 19 µM and the “TGI HELA” value (HELA [2]) is reported as 1.83 µM. For the same compound, the “TGI IGROV” value (IGROV [3]) was 2.3 µM, the “TGI SK-MEL-28” value (SK-MEL-28 [4]) was 0.999 µM and the “antibacterial and antitumoral activities (in words)” value [5] was “appear to loose their activity”. The GI50 (LN-caP [6]) was 0.308 µM, the CC50 (LN-caP [6]) was 1.2 µM and the “TGI K-562” value (K-562 [7]) was 0.467 µM. For the same compound, the “TGI HT29” value (HT29 [8]) was 2.75 µM, the “TGI A549” value (A549 [9]) was 8.83 µM and the GI50 (HT29 [10]) was 1.01 µM. It also gave a CC50 (HT29 [10]) of 18.6 µM, a GI50 (IGROV-ET [11]) of 3.02 µM and a CC50 (IGROV-ET [11]) of 16.5 µM. It also gave a zone of inhibition at 10 µg/disc (Bacillus subtilis; Bacillus subtilis) of 10 mm, a GI50 (K-562 [12]) of 0.113 µM and a CC50 (K-562 [12]) of 1.84 µM. The “TGI SK-BR3” value (SK-BR3 [13]) was 2.28 µM, the “TGI LN-caP” value (LN-caP [14]) was 0.608 µM and the “TGI DU-145” value (DU-145 [15]) was 8.62 µM. For the same compound, the GI50 (SK-MEL-28 [16]) was 0.52 µM, the CC50 (SK-MEL-28 [16]) was 2.01 µM and the “TGI LOVO” value (LOVO [17]) was 6.84 µM. The GI50 (HELA-APL [18]) was 0.465 µM, the CC50 (HELA-APL [18]) was 1.86 µM and the GI50 (SK-BR3 [19]) was 0.824 µM. The CC50 (SK-BR3 [19]) was 8.85 µM, the GI50 (A549 [20]) was 4.71 µM and the CC50 (A549 [20]) was 16.6 µM. It also gave a GI50 (HELA [21]) of 0.761 µM, a CC50 (HELA [21]) of 7.42 µM and a GI50 (PANC1 [22]) of 4.77 µM. For the same compound, the CC50 (PANC1 [22]) was greater than 19 µM, the GI50 (LOVO [23]) was 2.54 µM and the CC50 (LOVO [23]) was 18.4 µM. For the same compound, the “TGI PANC1” value (PANC1 [24]) was 11.7 µM, the “TGI IGROV-ET” value (IGROV-ET [25]) was 7.04 µM and the “TGI HELA-APL” value (HELA-APL [26]) was 0.932 µM. The GI50 (DU-145 [27]) was 4.58 µM, the CC50 (DU-145 [27]) was 16.2 µM and the GI50 (IGROV [28]) was 0.849 µM. For the same compound, the CC50 (IGROV [28]) was 12.1 µM and the “TGI LOVO-DOX” value (LOVO-DOX [29]) was 19 µM.
